According to patent US5426194A, “Isolation and structure of Halistatin 1” (Arizona Board of Regents, a body corporate acting on behalf …, priority 1993, dated 1995):

Tests used:
[1] = system: tubulin; assay: binding of radiolabeled vinblastine to tubulin
[2] = system: L1210 murine leukemia cells; assay: cytotoxicity in L1210 leukemia cells; assay type: cell-based
[3] = system: tubulin; settings: in words, shown previously; cited from earlier work
[4] = system: L1210 murine leukemia cells; assay: mitotic index at cytotoxic concentrations; assay type: cell-based; settings: in words
[5] = system: tubulin; assay: radiolabeled GTP binding to tubulin (nucleotide exchange)
[6] = system: human tumor cell line panel; assay: NCI in vitro primary screen, pattern of differential growth inhibition / mean graph comparison; assay type: cell-based; settings: computerized pattern-recognition analyses
Source text: Only two hundred years ago, many diseases ravaged humankind. Many of these diseases have been controlled or eradicated. In the development of the means to treat or control these diseases, work with the appropriate common experimental animals is of critical importance. With the various types of cancers, and with the HIV virus, such work is presently ongoing. The research for the treatment of various types of cancer is coordinated in the United States by the National Cancer Institute (NCI). NCI, as a government entity, has been charged with assisting all anti-cancer research. To establish whether a substance has anti-cancer activity, NCI has established a variety of protocols one of which involves testing the candidate substance against a cell line panel containing 60 human tumor cell lines. This protocol has been verified, and is generally accepted throughout the scientific community. This protocol and the established statistical means of evaluating the results obtained therefrom have been fully described in the literature See Principles & Practice of Oncology PPO Updates, Volume 3, Number 10, October 1989, by Michael R. Boyd, M.D., Ph.D. for an in depth description of the test protocol. […]

[7] = system: tubulin; settings: in words, shown previously; cited from earlier work; remark: listed apart in the source

Compound	inhibition of binding of radiolabeled vinblastine ([1]; 5 μM) [%]	inhibition of binding of radiolabeled vinblastine ([1]; 10 μM) [%]	IC50 [2] [nM]	inhibition of nucleotide exchange on tubulin [3]	rise in the mitotic index [4]	inhibition of radiolabeled GTP binding to tubulin ([5]; 5 μM) [%]	inhibition of radiolabeled GTP binding to tubulin ([5]; 10 μM) [%]	correlation of mean graph profiles [6]	mode of inhibition of vinblastine binding to tubulin [7]
C=C1C[C@@H]2CC[C@@]34C[C@H]5O[C@H]6[C@@H](O3)[C@H]3O[C@H](CC[C@@H]3O[C@H]6[C@H]5O4)CC(=O)O[C@@H]3[C@@H](C)[C@@H]4O[C@@H]5C[C@]6(C[C@@H]7O[C@]8(C[C@H](C)[C@@H]9O[C@H]([C@@H](O)C[C@@H](O)CO)C[C@@H]9O8)C[C@H](C)[C@@H]7O6)O[C@@H]5C[C@@H]4O[C@H]3C[C@H]3O[C@@H](CC[C@@H]1O2)C[C@@H](C)C3=C [halichondrin B]	51	73	0.2	inhibit nucleotide exchange on tubulin	caused a significant rise in the mitotic index	14	18	strongly correlated with each other and also with the profiles of a general class of tubulin-interactive antimitotics	noncompetitive inhibitor of the binding of radiolabeled vinblastine to tubulin
C=C1C[C@@H]2CC[C@@]34C[C@H]5O[C@H]6[C@@H](O3)[C@H]3O[C@H](CC[C@@H]3O[C@H]6[C@H]5O4)CC(=O)O[C@@H]3[C@@H](C)[C@@H]4O[C@@H]5C[C@]6(C[C@@H]7O[C@]8(C[C@H](C)[C@@H]9O[C@@H]%10CC(C(O)CO)O[C@@H]%10C[C@@H]9O8)C[C@H](C)[C@@H]7O6)O[C@@H]5C[C@@H]4O[C@H]3C[C@H]3O[C@@H](CC[C@@H]1O2)C[C@@H](C)C3=C (stereo partly shown) [homohalichondrin B]								strongly correlated with each other and also with the profiles of a general class of tubulin-interactive antimitotics	
